Earlier results on one molecule are cited in patent US12678479B2, “Pharmaceutical compositions comprising teixobactin” (priority 2018, dated 2026).

For this data set, the system named is MRSA ATCC 33591. The conditions noted are these: comparison value.

Take `CN[C@H](CC(C)C)C(=O)N[C@H]1C(=O)N[C@@H](CC(N)=O)C(=O)N[C@H]2C(=O)N[C@H]3C(=O)N[C@H](C(=O)N[C@H](C(=O)O)c4cc(O)cc(O)c4-c4cc3ccc4O)[C@H](O[C@H]3C[C@](C)(N)[C@@H](O)[C@H](C)O3)c3ccc(c(Cl)c3)Oc3cc2cc(c3O[C@@H]2O[C@H](CO)[C@@H](O)[C@H](O)[C@H]2O[C@H]2C[C@](C)(NCc3ccc(-c4ccc(Cl)cc4)cc3)[C@@H](O)[C@H](C)O2)Oc2ccc(cc2Cl)[C@H]1O` [Orbactiv, oritavancin]: the effective dose was 4 to 5 mg/kg.
